Measurements: publication PMC10463376, “Design, synthesis, in vitro anticancer, molecular docking and SAR studies of new series of pyrrolo[2,3-d]pyrimidine derivatives” (BMC Chemistry, 2023)

Experiments:
Assay type in all cases: cell-based, human
MCF7 cells = test: Annexin V-FITC/PI apoptosis flow cytometry, MCF7; details: for percentage of late apoptotic cells (Q1-UR) / percentage of necrotic cells (Q1-UL) / percentage of early apoptotic cells (Q1-LR): MCF7, 24 h, IC50; for percentage of late apoptotic cells (Q1-UR): control 0.41%; for percentage of necrotic cells (Q1-UL): control 1.01%; for percentage of early apoptotic cells (Q1-LR): control 7.8%; for induction of apoptotic death: MCF7 cells
Protocol: (§1) The percentage of apoptotic cells was detected by using Annexin V-FITC kit catalog number (#K101-25). About 2X10^6 of MCF7 and Paca2 cells were washed in 500 µl of 1 × PBS. Then, the cells were centrifuged and the supernatant was discarded. The cells pellet were re-suspended in the annexin V incubation reagent. The annexin V incubation reagent contained 10 μl binding buffer (10 ×), 10 μl propidium iodide, 1 μl annexin V-FITC, and 79 μl deionized water. The cells were incubated in 100 μl annexin V incubation reagent for 15 min in the dark at room temperature. Finally, the apoptotic cell percentage was detected by flow cytometry using the FITC signal detector (usually FL-1) and PI staining by the phycoerythrin emission signal detector (usually FL-2).

P53 = test: RT-qPCR P53 mRNA in Paca2; details: 17 vs both Dox. and negative control
Protocol: (§2) All of the extractions were conducted on ice with ice-cold reagents. Total RNA from the different cell lines was isolated using Trizol (Invitrogen; Life Technologies, USA) according to the method of Sthoeger et al.. The 260:280 ratios were measured to determine RNA quality after the isolation method was completed according to the manufacturer’s instructions. A high-capacity cDNA reverse transcription kit was used to produce complementary DNA (cDNA) (Applied Biosystems, USA). […] The relative gene expression method (i.e., ΔΔCT) was used to analyze the real-time PCR data, as explained in Applied Biosystem User Bulletin No. 2. Each sample and gene were normalized using the β-actin gene.

caspase 3 [1] = test: ELISA caspase 3 in Paca2 cells; details: control 5.34
Source text: (§3) Elisa assay was used to determine the concentrations of Human caspases-3, -8, Bax, and Bcl2 in PACA2- and A549-treated cells. Also, the concentrations of caspase-8, Bax, and Bcl2 in MCF7-treated cells were detected. The procedures were followed up according to the instructions described in the following kits; Invitrogen human Caspase-3 Elisa Kit, Catalog KHO1091, DRG® human Caspase-8 ELISA Kit, Catalog (EIA-4863), Human Bax ELISA Kit (ab199080) and Human Bcl-2 ELISA Kit (ab119506) respectively. Shortly, the protocol described in the above kits was as followed; at the beginning, all the reagents, samples and standards were prepared. 100 μl of samples or standard were micro pipetted to each well of micro-well strip and kept at room temperature for 2 h. After washing the micro-well strips three times with washing buffer, the prepared antibody (anti-rabbit-IgG-HRP) at a concentration of 100 μl was added to each well at room temperature for 1 h. Then, the micro-well strips were washed again three times. Afterward, the prepared tetramethyl-benzidine (TMB) solution (100 μl) was added to the micro-well strips and kept for 10 min. […] The absorbance of all samples was measured at a wavelength of 460 nm and compared to that of the standard. Curve fitting software was used to plot a standard curve and the concentrations for the unknown samples were measured from the standard curve.

Bcl2 [2] = test: ELISA Bcl2 in Paca2 cells; details: control 16.23
Source text: as §3

Paca2 cells = test: Annexin V-FITC/PI apoptosis flow cytometry, Paca2; details: Paca2, 24 h, IC50
Protocol: as §1

lung cell line (A549) = test: DNA fragmentation assay, A549; details: A549, IC50, 24 h, vs negative control (P < 0.01); Dox. higher than 4b
Protocol: The DNA fragmentation assay in a pancreatic cell line (Paca2), breast cancer cell lines (MCF-7) and lung cell line (A549) was performed in concordance with the premises established by Yawata with some modifications. Briefly, after 24 h of exposure of Paca2, MCF-7 and A549 cancer cell lines to the prepared compounds in different Petri dishes (60 × 15 mm, Greiner), the cells were suspended and homogenized in 1 ml of medium and then centrifuged for 10 min at 900 rpm. The genomic DNA was extracted as shown in Yawata. About 1 × 10^6 cells of each tested cancer cell line were treated with the IC50 values of the tested compounds. All the cells were collected via trypsinization and washed with Dulbecco`s Phosphate Buffered Saline. Then, the cells were treated with the lysis buffer containing 5 mM ethylenediaminetetraacetic acid (EDTA), 10 mM Tris (pH 7.4), 0.5% Triton X-100 and 150 mM NaCl for 35 min on ice. […] Finally, the percentage of fragmented DNA was determined by performing gel electrophoresis using 2% agarose gel containing 0.1 μg/ml ethidium bromide.
Pancreatic cancer cell line (Paca2), breast cancer cell line (MCF-7) and lung cancer cell line (A549) were used to determine the percentage of DNA fragmentation after the treatment with IC50 of the tested compounds. […] The percentage of fragmented DNA was measured from the absorbance reading at 600 nm wavelength using the following formula: […]

BAX = test: ELISA BAX in A549 cells; details: control 5.84
Source text: as §3

CDK4 = test: RT-qPCR CDK4 mRNA in A549; details: A549, compared with Dox.
Protocol: as §2

caspase 3 [3] = test: ELISA caspase 3 in A549 cells; details: control 6.32
Source text: as §3

caspase 8 = test: ELISA caspase 8 in A549 cells; details: control 5.83
Source text: as §3

Bcl2 [4] = test: ELISA Bcl2 in A549 cells; details: control 16.21
Source text: as §3

IL-8 = test: RT-qPCR IL-8 mRNA in A549; details: A549, compared with Dox.
Protocol: as §2

Q: `COc1ccc(-c2c(Cl)n(-c3ccc(Cl)cc3Cl)c3ncnc(N4CCOCC4)c23)cc1OC` [Compound 18b, 4-(6-chloro-7-(2,4-dichlorophenyl)-5-(3,4-dimethoxyphenyl)-7H-pyrrolo[2,3-d]pyrimidin-4-yl)morpholine] was tested. Which “percentage of late apoptotic cells (Q1-UR)” value (MCF7 cells) did it give?
A: 0.89%

Q: What about the “percentage of necrotic cells (Q1-UL)” value (MCF7 cells) of the same molecule?
A: 0.76%

Q: What about the “percentage of early apoptotic cells (Q1-LR)” value (MCF7 cells) of the same molecule?
A: 20.63%

Q: And the “induction of apoptotic death” value (MCF7 cells)?
A: induced the apoptotic death

Q: For `COc1cccc2c1C(=O)c1c(O)c3c(c(O)c1C2=O)C[C@@](O)(C(=O)CO)C[C@@H]3O[C@H]1C[C@H](N)[C@H](O)[C@H](C)O1` [Dox, Doxorubicin, reference compound], which “P53 mRNA level” value (P53) is on record?
A: no significant difference

Q: Which results are given for `COc1ccc(-c2c(Cl)n(-c3ccc(Cl)cc3Cl)c3ncnc(N4CCN(C)CC4)c23)cc1OC` [Compound 16b, 6-chloro-7-(2,4-dichlorophenyl)-5-(3,4-dimethoxyphenyl)-4-(4-methylpiperazin-1-yl)-7H-pyrrolo[2,3-d]pyrimidine]?
A: percentage of late apoptotic cells (Q1-UR) (MCF7 cells): 1.7%; percentage of necrotic cells (Q1-UL) (MCF7 cells): 0.96%; percentage of early apoptotic cells (Q1-LR) (MCF7 cells): 11.49%; induction of apoptotic death (MCF7 cells): induced the apoptotic death

Q: With `CN1CCN(c2nc(C(Cl)(Cl)Cl)nc3c2c(-c2ccc(Br)cc2)c(Cl)n3-c2ccc(Cl)cc2Cl)CC1` [Compound 17, 5-(4-bromophenyl)-6-chloro-7-(2,4-dichlorophenyl)-4-(4-methylpiperazin-1-yl)-2-(trichloromethyl)-7H-pyrrolo[2,3-d]pyrimidine] as the molecule, how does the “caspase 3 level (ELISA)” value (caspase 3 [1]) read?
A: 9.14 pg/mL

Q: And the “P53 mRNA level” value (P53)?
A: up-regulated

Q: What about the “Bcl2 concentration (ELISA)” value (Bcl2 [2]) of the same molecule?
A: 6.26 pg/mL

Q: What about the “percentage of late apoptotic cells (Q1-UR)” value (Paca2 cells; control 0.54%) of the same molecule?
A: 0.86%

Q: And the “percentage of necrotic cells (Q1-UL)” value (Paca2 cells; control 2.27%)?
A: 6.17%

Q: And the “percentage of early apoptotic cells (Q1-LR)” value (Paca2 cells; control 4.46%)?
A: 4.74%

Q: For `COc1ccc(-c2c(Cl)n(-c3ccc(Cl)cc3Cl)c3ncnc(Cl)c23)cc1OC` [Compound 4b, 4,6-dichloro-7-(2,4-dichlorophenyl)-5-(3,4-dimethoxyphenyl)-7H-pyrrolo[2,3-d]pyrimidine], which DNA fragmentation value (lung cell line (A549)) is on record?
A: increased significantly

Q: And the “BAX level (ELISA)” value (BAX)?
A: 14.83 pg/mL

Q: And the “CDK4 mRNA level” value (CDK4)?
A: down-regulated

Q: What about the “caspase 3 level (ELISA)” value (caspase 3 [3]) of the same molecule?
A: 12.12 pg/mL

Q: What about the “caspase 8 level (ELISA)” value (caspase 8) of the same molecule?
A: 16.84 pg/mL

Q: What about the “Bcl2 level (ELISA)” value (Bcl2 [4]) of the same molecule?
A: 9.4 pg/mL

Q: And the “IL-8 mRNA level” value (IL-8)?
A: down-regulated
